For test [1], the target named is T1, GST tagged LXRbeta LBD (ligand binding domain) (Homo sapiens, UniProt P55055).
T1 construct: purchased Invitrogen pv4658.pps
T1 sequence (P55055 222-460 limits assumed): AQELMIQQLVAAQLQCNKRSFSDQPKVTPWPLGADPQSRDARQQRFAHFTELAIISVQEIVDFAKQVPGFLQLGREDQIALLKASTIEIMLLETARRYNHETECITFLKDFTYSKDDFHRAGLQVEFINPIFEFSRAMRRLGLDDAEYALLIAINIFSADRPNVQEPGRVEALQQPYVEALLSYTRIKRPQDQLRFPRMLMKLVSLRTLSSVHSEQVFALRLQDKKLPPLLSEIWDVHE
In words: LanthaScreen TR-FRET Liver X Receptor Coactivator Assay, LXR beta-LBD (co-activator recruitment; IP and % Emax relative to T0901317). The conditions noted are these: for EC50: Inflection Point of co-activator recruitment, LXR beta-LBD, TR-FRET; for Emax: efficacy at max dose in relation to reference T0901317, LXR beta-LBD, read-out: LXR beta actiivty at max dose (%). Format: biochemical. Summed up: (§1)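 Compounds were first combined with the GST-LBD protein. A premixed fluorescein coactivator peptide and terbium-labelled anti-GST antibody was then added. Plates were incubated at room temperature and TR-FRET measured.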
A general note: Time-resolved FRET reads energy transfer from a long-lived donor to a nearby acceptor.

Test [2] concerns the target T2, GST tagged LXRalpha LBD (ligand binding domain) (Homo sapiens, UniProt Q13133).
T2 construct: purchased Invitrogen pv4655
T2 sequence (Q13133 209-447 limits assumed): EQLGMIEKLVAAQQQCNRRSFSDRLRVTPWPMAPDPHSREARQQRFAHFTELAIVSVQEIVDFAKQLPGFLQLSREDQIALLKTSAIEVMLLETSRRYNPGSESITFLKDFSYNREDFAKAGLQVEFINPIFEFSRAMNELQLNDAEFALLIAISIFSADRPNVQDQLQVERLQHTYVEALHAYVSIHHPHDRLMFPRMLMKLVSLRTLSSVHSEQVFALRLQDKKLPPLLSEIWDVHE
In words: LanthaScreen TR-FRET Liver X Receptor Coactivator Assay, LXR alpha-LBD (co-activator recruitment; IP and % Emax relative to T0901317). The test is classed as biochemical. The conditions noted are these: for LXR alpha IP (nM) / EC50: Inflection Point of co-activator recruitment, LXR alpha-LBD, TR-FRET; for Emax: efficacy at max dose in relation to reference T0901317, LXR alpha-LBD, read-out: LXR alpha actiivty at max dose (%). Summed up: as §1

For orientation: EC50 means the concentration that produces a half-maximal response. Low readings indicate an effect from little substance, high ones a need for much substance. Regarding `CNC(=O)c1ccc(N2CCC(CC3CC(NC(=O)[C@](O)(c4cccc(OC)c4)C(F)(F)F)C3)CC2)cc1Cl` (stereo partly drawn) [Example 11-5, (R)-2-chloro-N-methyl-4-(4-((3-(3,3,3-trifluoro-2-hydroxy-2-(3-methoxyphenyl)propanamido)cyclobutyl)methyl)piperidin-1-yl)benzamide], in test [1], the EC50 is 653 nM and the Emax amounted to 53%. In addition, in test [2], the “LXR alpha IP (nM)” value was “No IP” and the Emax worked out at 7%.
Turning to `CN(C)C(=O)c1ccc(N2CCC([C@@H]3C[C@H]3CN(C)C(=O)[C@@](O)(c3ccccc3)C(F)(F)F)CC2)cc1Cl` [Example 15-20, 2-chloro-N,N-dimethyl-4-(4-((1S,2R)-2-(((S)-3,3,3-trifluoro-2-hydroxy-N-methyl-2-phenylpropanamido)methyl)cyclopropyl)piperidin-1-yl)benzamide], in test [1], a half-maximal response (EC50) required 403 nM and the Emax was found to be 65%. In test [2], the “LXR alpha IP (nM)” value was “No IP” and the Emax came out at 12%.
Consider `COc1cccc([C@@](O)(C(=O)N(C)CCCC2(C)CCN(c3ccc(C(=O)N(C)C)c(Cl)n3)CC2)C(F)(F)F)c1` [Example 9-1, (R)-2-chloro-N,N-dimethyl-6-(4-methyl-4-(3-(3,3,3-trifluoro-2-hydroxy-2-(3-methoxyphenyl)-N-methylpropanamido)propyl)piperidin-1-yl)nicotinamide], for which, in test [1], the EC50 was 16 nM and the Emax was 37%. In test [2], the “LXR alpha IP (nM)” value was “No IP” and the Emax stood at 0%.
The like results for `COc1cccc([C@@](O)(C(=O)N(C)CCCC2CCN(c3ccc(C(=O)N(C)C(C)C)c(Cl)n3)CC2)C(F)(F)F)c1` [Example 2-4, (R)-2-chloro-N-isopropyl-N-methyl-6-(4-(3-(3,3,3-trifluoro-2-hydroxy-2-(3-methoxyphenyl)-N-methylpropanamido)propyl)piperidin-1-yl)nicotinamide] were, in that order, 24 nM, 61%, “No IP” and 0%.
For the molecule `CN(C)C(=O)c1ccc(N2CCC([C@@H]3C[C@H]3CN(C)C(=O)[C@](O)(c3ccccc3)C(F)(F)F)CC2)cc1Cl` [Example 15-19, 2-chloro-N,N-dimethyl-4-(4-((1S,2R)-2-(((R)-3,3,3-trifluoro-2-hydroxy-N-methyl-2-phenylpropanamido)methyl)cyclopropyl)piperidin-1-yl)benzamide], in test [1], the response was half-maximal at 127 nM (EC50) and the Emax is 72%. Also, in test [2], the “LXR alpha IP (nM)” value is reported as “No IP” and the Emax worked out at 0%.
For `COc1cccc([C@@](O)(C(=O)N(C)CCC2CC3(CCN(c4ccc(C(=O)N(C)C)c(Cl)n4)CC3)C2)C(F)(F)F)c1` [Example 13-1], in test [1], it took 34 nM to reach a half-maximal effect (EC50) and the Emax is 50%. For the same molecule, in test [2], a half-maximal effect (EC50) was put at 472 nM and the Emax came out at 26%.
For `CC(C)=C(C(=O)N(C)CCCC1CCN(c2ccc(C(=O)N(C)C)c(Cl)n2)CC1)c1ccccc1` [Example 1-61, 2-chloro-6-(4-(3-(N,3-dimethyl-2-phenylbut-2-enamido)propyl)piperidin-1-yl)-N,N-dimethylnicotinamide], in test [1], a half-maximal response (EC50) required 1380 nM and the Emax is 23%. For the same molecule, in test [2], the “LXR alpha IP (nM)” value is “No IP” and the Emax was 0%.
In the same order, the values of `COc1cccc([C@@](O)(C(=O)N(C)CCCC2CCN(c3ccc(C(=O)NC(C)C)c(Cl)n3)CC2)C(F)(F)F)c1` [Example 2-1, (R)-2-chloro-N-isopropyl-6-(4-(3-(3,3,3-trifluoro-2-hydroxy-2-(3-methoxyphenyl)-N-methylpropanamido)propyl)piperidin-1-yl)nicotinamide] are 686 nM, 51%, “No IP” and 18%.
The like results for `CN(C)C(=O)c1ccc(N2CCC(CCCN(C)C(=O)[C@@]3(c4ccccc4F)CCCO3)CC2)nc1Cl` [Example 1-5, (S)-2-chloro-6-(4-(3-(2-(2-fluorophenyl)-N-methyl-tetrahydrofuran-2-carboxamido)propyl)piperidin-1-yl)-N,N-dimethylnicotinamide] were, in that order, 55 nM, 82%, “No IP” and 6%.
Turning to `CN(C)C(=O)c1ccc(N2CCC(CCCNC(=O)C3(c4ccccc4)CCC3)CC2)nc1Cl` [Example 5-16, 2-chloro-N,N-dimethyl-6-(4-(3-(1-phenylcyclobutane-carboxamido)propyl)piperidin-1-yl)nicotinamide], in test [1], a half-maximal response (EC50) required 235 nM and the Emax was determined as 83%. In test [2], the EC50 was determined as 5220 nM and the Emax stood at 26%.
Regarding `COc1cccc([C@@](O)(C(=O)N(C)CC[C@H]2CC23CCN(c2ccc(C(=O)N(C)C(C)C)c(Cl)c2)CC3)C(F)(F)F)c1` [Example 7-14, 2-chloro-N-isopropyl-N-methyl-4-((R)-1-(2-((R)-3,3,3-trifluoro-2-hydroxy-2-(3-methoxyphenyl)-N-methylpropanamido)ethyl)-6-azaspiro[2.5]octan-6-yl)benzamide], in test [1], the midpoint of the response, the EC50, lay at 18 nM and the Emax was found to be 55%. Also, in test [2], the “LXR alpha IP (nM)” value was “No IP” and the Emax turned out to be 6%.
In the same order, the values of `COc1cccc([C@@](O)(C(=O)Nc2ccc(C3CCN(c4ccc(C(=O)N(C)C)c(Cl)n4)CC3)cc2)C(F)(F)F)c1` [Example 10-1, (R)-2-chloro-N,N-dimethyl-6-(4-(4-(3,3,3-trifluoro-2-hydroxy-2-(3-methoxyphenyl)propanamido)phenyl)piperidin-1-yl)nicotinamide] are 1350 nM, 65%, “No IP” and 0%.
With `CN(C)C(=O)c1ccc(N2CCC(CCCN(C)C(=O)[C@@]3(c4ccccc4)CCCO3)CC2)nc1Cl` [Example 1-38, (S)-2-chloro-N,N-dimethyl-6-(4-(3-(N-methyl-2-phenyltetrahydrofuran-2-carboxamido)propyl)piperidin-1-yl)nicotinamide], the EC50 was determined as 156 nM in test [1] and 1920 nM in test [2]. For the same molecule, the Emax in test [1] turned out to be 78%; in test [2], 18%.
In the same order, the values of `CN(C)C(=O)c1ccc(N2CCC(CCCN(C)C(=O)[C@@]3(C(F)(F)F)CCCO3)CC2)nc1Cl` [Example 1-7, (R)-2-chloro-N,N-dimethyl-6-(4-(3-(N-methyl-2-(trifluoromethyl)-tetrahydrofuran-2-carboxamido)propyl)piperidin-1-yl)nicotinamide] are 144 nM, 2520 nM, 94% and 57%.
The like results for `COc1cccc([C@@](O)(C(=O)N(C)CCC2CC23CCN(c2ccc(C(=O)NC(C)C)c(Cl)n2)CC3)C(F)(F)F)c1` (stereo in doubt) [Example 7-19, 2-chloro-N-isopropyl-6-((R)-1-(2-((R)-3,3,3-trifluoro-2-hydroxy-2-(3-methoxyphenyl)-N-methylpropanamido)ethyl)-6-azaspiro[2.5]octan-6-yl)nicotinamide] were, in that order, 76 nM, 688 nM, 58% and 27%.
On to `Cc1cccc([C@](O)(C(=O)N(C)CCCC2CCN(c3ccc(C(=O)N(C)C)c(Cl)n3)CC2)C(F)(F)F)c1` [Example 1-16, (S)-2-chloro-N,N-dimethyl-6-(4-(3-(3,3,3-trifluoro-2-hydroxy-N-methyl-2-m-tolylpropanamido)propyl)piperidin-1-yl)nicotinamide], for which, in test [1], the EC50 came to 179 nM and the Emax worked out at 54%. Further, in test [2], the “LXR alpha IP (nM)” value is “No IP” and the Emax was found to be 1%.
Consider `CN(C)C(=O)c1ccc(N2CCC(CCCN(C)C(=O)[C@]3(C(F)(F)F)CCCO3)CC2)nc1Cl` [Example 1-8, (S)-2-chloro-N,N-dimethyl-6-(4-(3-(N-methyl-2-(trifluoromethyl)-tetrahydrofuran-2-carboxamido)propyl)piperidin-1-yl)nicotinamide], for which the results for the 50% effective concentration (EC50) in test [1] and in test [2] were 106 nM and 1770 nM, respectively. Besides, the Emax came out at 81% in test [1] and 51% in test [2].
Regarding `COc1cccc([C@@](O)(C(=O)N(C)CC[C@@H]2CC23CCN(c2ccc(C(=O)N(C)C(C)C)c(Cl)c2)CC3)C(F)(F)F)c1` [Example 7-30, 2-chloro-N-isopropyl-N-methyl-4-((S)-1-(2-((R)-3,3,3-trifluoro-2-hydroxy-2-(3-methoxy-phenyl)-N-methyl-propanamido)ethyl)-6-azaspiro[2.5]octan-6-yl)benzamide], in test [1], the concentration giving a half-maximal response (EC50) was 557 nM and the Emax was 27%. For the same molecule, in test [2], the “LXR alpha IP (nM)” value is “No IP” and the Emax worked out at 0%.

For the origin of these results see US10961215B2, “N-aryl and N-heteroaryl piperidine derivatives as liver X receptor beta agonists, compositions, and their use” (Merck Sharp & Dohme Corp., priority 2016, dated 2021).
